Values quoted from earlier work, collected in US7368249B2, “Methods and compositions for evaluation and modulation of fertility” (The Curators of the University of Missouri, priority 2003, dated 2008).

System: maturing reticulocytes
Conditions: presence vs absence of ETYA

SMILES: CCCCCC#CCC#CCC#CCC#CCCCC(=O)O [ETYA, 5,8,11,14-eicosatetraynoic acid]
- mitochondrial degradation in maturing reticulocytes: delayed
